Test results as given in ChEMBL document CHEMBL6134780, “Halogenated retinoid derivatives as dual RARα and RXRα modulators for treating acute promyelocytic leukemia cells” (Eur J Med Chem, 2024).
Activity calls are given as the source filed them. The calls are words filed in the database; no cut-off is given here.

Tests used:
NB-4 [1] = experiment: Induction of cell differentiation in human NB4 cells assessed as NBT positive cells at 0.5 uM incubated for 6 days by Nitro Blue tetrazolium chloride based microscopic analysis (reference value: 0 %); assay type: functional; conditions: time 6 day
NB-4 [2] = experiment: Antiproliferative activity against human NB4 cells assessed as inhibition of cell viability incubated for 3 days by CCK8 assay; assay type: functional, cell-based; conditions: dose <= 3.5 µM, time 3.0 day
[3] = molecular target: T1, Retinoic acid receptor alpha (Homo sapiens) (UniProt P10276); experiment: Agonist activity at full length RARalpha LBD (unknown origin) transfected in HEK293T cells co-transfected with pG5luc reporter and Renilla-luc assessed as transactivation at 0.5 to 1 uM incubated for 12 hrs by luciferase reporter gene assay; assay type: cell-based; conditions: filed as agonist, dose 0.5-1 µM
T1 sequence (whole entry): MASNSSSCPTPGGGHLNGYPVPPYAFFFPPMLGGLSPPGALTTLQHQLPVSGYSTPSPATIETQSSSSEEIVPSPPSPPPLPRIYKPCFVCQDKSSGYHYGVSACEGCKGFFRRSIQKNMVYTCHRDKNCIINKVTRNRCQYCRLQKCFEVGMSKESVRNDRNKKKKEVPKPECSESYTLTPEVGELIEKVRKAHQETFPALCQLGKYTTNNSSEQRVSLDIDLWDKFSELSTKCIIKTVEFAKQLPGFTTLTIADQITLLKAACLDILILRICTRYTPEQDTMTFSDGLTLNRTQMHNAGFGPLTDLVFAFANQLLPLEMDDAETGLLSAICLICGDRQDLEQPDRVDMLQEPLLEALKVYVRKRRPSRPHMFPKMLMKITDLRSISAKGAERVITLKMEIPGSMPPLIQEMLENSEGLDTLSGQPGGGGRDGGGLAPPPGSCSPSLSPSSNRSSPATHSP

NB-4 [4] = experiment: Induction of apoptosis in human NB4 cells assessed as early apoptotic cells at 1 uM incubated for 24 hrs by Annexin V-FITC/PI staining based flow cytometric analysis (reference value: 1.77 %); assay type: functional
NB-4 [5] = experiment: Induction of apoptosis in human NB4 cells assessed as late apoptotic cells at 1 uM incubated for 24 hrs by Annexin V-FITC/PI staining based flow cytometric analysis (reference value: 2.23 %); assay type: functional
[6] = Induction of apoptosis in human ATRA-resistant NB4-LR2 cells assessed as early apoptotic cells at 1 uM incubated for 24 hrs by Annexin V-FITC/PI staining based flow cytometric analysis (reference value: 1.41 %); assay type: functional
[7] = Induction of apoptosis in human ATRA-resistant NB4-LR2 cells assessed as late apoptotic cells at 1 uM incubated for 24 hrs by Annexin V-FITC/PI staining based flow cytometric analysis (reference value: 5.62 %); assay type: functional
NB-4 [8] = experiment: Cell cycle arrest in human NB4 cells assessed as accumulation of cells at G0/G1 phase at 1 uM incubated for 12 hrs by DAPI staining based flow cytometric analysis (reference value: 51 %); assay type: functional
NB-4 [9] = experiment: Cell cycle arrest in human NB4 cells assessed as accumulation of cells at S phase at 1 uM incubated for 12 hrs by DAPI staining based flow cytometric analysis (reference value: 20 %); assay type: functional
NB-4 [10] = experiment: Cell cycle arrest in human NB4 cells assessed as accumulation of cells at G2/M phase at 1 uM incubated for 12 hrs by DAPI staining based flow cytometric analysis (reference value: 26 %); assay type: functional
NB-4 [11] = experiment: Cell cycle arrest in human NB4 cells assessed as accumulation of cells at sub-G1 phase at 1 uM incubated for 12 hrs by DAPI staining based flow cytometric analysis (reference value: 2 %); assay type: functional
[12] = Cell cycle arrest in human ATRA-resistant NB4-LR2 cells assessed as accumulation of cells at G0/G1 phase at 1 uM incubated for 12 hrs by DAPI staining based flow cytometric analysis (reference value: 42 %); assay type: functional
[13] = Cell cycle arrest in human ATRA-resistant NB4-LR2 cells assessed as accumulation of cells at S phase at 1 uM incubated for 12 hrs by DAPI staining based flow cytometric analysis (reference value: 12 %); assay type: functional
[14] = Cell cycle arrest in human ATRA-resistant NB4-LR2 cells assessed as accumulation of cells at G2/M phase at 1 uM incubated for 12 hrs by DAPI staining based flow cytometric analysis (reference value: 28 %); assay type: functional
[15] = Cell cycle arrest in human ATRA-resistant NB4-LR2 cells assessed as accumulation of cells at sub-G1 phase at 1 uM incubated for 12 hrs by DAPI staining based flow cytometric analysis (reference value: 18 %); assay type: functional
NB-4 [16] = experiment: Antiproliferative activity against human NB4 cells assessed as inhibition of cell viability at 0.125 uM incubated for 3 days by CCK8 assay relative to control; assay type: functional; conditions: NB-4, 72 h, time 3 day
NB-4 [17] = experiment: Antiproliferative activity against human NB4 cells assessed as inhibition of cell viability up to 2 uM incubated for 3 days by CCK8 assay relative to control; assay type: functional; conditions: time 3 day
NB-4 [18] = experiment: Induction of apoptosis in human NB4 cells assessed as viable cells at 10 uM incubated for 24 hrs by Annexin V-FITC/PI staining based flow cytometric analysis (reference value: 92.36 %); assay type: functional; conditions: read-out: Activity
NB-4 [19] = experiment: Induction of apoptosis in human NB4 cells assessed as early apoptotic cells at 10 uM incubated for 24 hrs by Annexin V-FITC/PI staining based flow cytometric analysis (reference value: 4.37 %); assay type: functional
NB-4 [20] = experiment: Induction of apoptosis in human NB4 cells assessed as late apoptotic cells at 10 uM incubated for 24 hrs by Annexin V-FITC/PI staining based flow cytometric analysis (reference value: 3.20 %); assay type: functional
NB-4 [21] = experiment: Induction of apoptosis in human NB4 cells assessed as necrotic cells at 10 uM incubated for 24 hrs by Annexin V-FITC/PI staining based flow cytometric analysis (reference value: 0.07 %); assay type: functional
[22] = Induction of apoptosis in human ATRA-resistant NB4-LR2 cells assessed as viable cells at 10 uM incubated for 24 hrs by Annexin V-FITC/PI staining based flow cytometric analysis (reference value: 87.30 %); assay type: functional; conditions: read-out: Activity
[23] = Induction of apoptosis in human ATRA-resistant NB4-LR2 cells assessed as early apoptotic cells at 10 uM incubated for 24 hrs by Annexin V-FITC/PI staining based flow cytometric analysis (reference value: 5.38 %); assay type: functional
[24] = Induction of apoptosis in human ATRA-resistant NB4-LR2 cells assessed as late apoptotic cells at 10 uM incubated for 24 hrs by Annexin V-FITC/PI staining based flow cytometric analysis (reference value: 7.23 %); assay type: functional
[25] = Induction of apoptosis in human ATRA-resistant NB4-LR2 cells assessed as necrotic cells at 10 uM incubated for 24 hrs by Annexin V-FITC/PI staining based flow cytometric analysis (reference value: 0.08 %); assay type: functional
ATRA-resistant NB4-LR2 [26] = experiment: Cell cycle arrest in human ATRA-resistant NB4-LR2 cells transfected with pLVX-shRXRalpha assessed as increase in PLK1 expression at 8 uM incubated for 12 hrs by Western blot analysis; assay type: functional, cell-based
ATRA-resistant NB4-LR2 [27] = experiment: Cell cycle arrest in human ATRA-resistant NB4-LR2 cells transfected with pLVX-shRXRalpha assessed as increase in cyclin B1 expression at 8 uM incubated for 12 hrs by Western blot analysis; assay type: functional, cell-based
ATRA-resistant NB4-LR2 [28] = experiment: Induction of apoptosis in human ATRA-resistant NB4-LR2 cells transfected with pLVX-shRXRalpha assessed as increase in cleaved PARP expression at 8 uM incubated for 12 hrs by Western blot analysis; assay type: functional, cell-based
NB-4 [29] = experiment: Induction of apoptosis in human NB4 cells assessed as viable cells at 5 uM incubated for 24 hrs by Annexin V-FITC/PI staining based flow cytometric analysis (reference value: 92.36 %); assay type: functional; conditions: read-out: Activity
NB-4 [30] = experiment: Induction of apoptosis in human NB4 cells assessed as early apoptotic cells at 5 uM incubated for 24 hrs by Annexin V-FITC/PI staining based flow cytometric analysis (reference value: 4.37 %); assay type: functional
NB-4 [31] = experiment: Induction of apoptosis in human NB4 cells assessed as late apoptotic cells at 5 uM incubated for 24 hrs by Annexin V-FITC/PI staining based flow cytometric analysis (reference value: 3.20 %); assay type: functional
NB-4 [32] = experiment: Induction of apoptosis in human NB4 cells assessed as necrotic cells at 5 uM incubated for 24 hrs by Annexin V-FITC/PI staining based flow cytometric analysis (reference value: 0.07 %); assay type: functional
[33] = Induction of apoptosis in human ATRA-resistant NB4-LR2 cells assessed as viable cells at 5 uM incubated for 24 hrs by Annexin V-FITC/PI staining based flow cytometric analysis (reference value: 87.30 %); assay type: functional; conditions: read-out: Activity
[34] = Induction of apoptosis in human ATRA-resistant NB4-LR2 cells assessed as early apoptotic cells at 5 uM incubated for 24 hrs by Annexin V-FITC/PI staining based flow cytometric analysis (reference value: 5.38 %); assay type: functional
[35] = Induction of apoptosis in human ATRA-resistant NB4-LR2 cells assessed as late apoptotic cells at 5 uM incubated for 24 hrs by Annexin V-FITC/PI staining based flow cytometric analysis (reference value: 7.23 %); assay type: functional
[36] = Induction of apoptosis in human ATRA-resistant NB4-LR2 cells assessed as necrotic cells at 5 uM incubated for 24 hrs by Annexin V-FITC/PI staining based flow cytometric analysis (reference value: 0.08 %); assay type: functional
[37] = molecular target: Retinoic acid receptor RXR-alpha (Homo sapiens, UniProt P19793); experiment: Binding affinity to N-terminal His-tagged human RXRalpha LBD extracted from Escherichia coli BL21 (DE3) cells assessed as dissociation constant by fluorescence quenching assay
Sequence of Retinoic acid receptor RXR-alpha (P19793 whole entry, the tested form may be a part): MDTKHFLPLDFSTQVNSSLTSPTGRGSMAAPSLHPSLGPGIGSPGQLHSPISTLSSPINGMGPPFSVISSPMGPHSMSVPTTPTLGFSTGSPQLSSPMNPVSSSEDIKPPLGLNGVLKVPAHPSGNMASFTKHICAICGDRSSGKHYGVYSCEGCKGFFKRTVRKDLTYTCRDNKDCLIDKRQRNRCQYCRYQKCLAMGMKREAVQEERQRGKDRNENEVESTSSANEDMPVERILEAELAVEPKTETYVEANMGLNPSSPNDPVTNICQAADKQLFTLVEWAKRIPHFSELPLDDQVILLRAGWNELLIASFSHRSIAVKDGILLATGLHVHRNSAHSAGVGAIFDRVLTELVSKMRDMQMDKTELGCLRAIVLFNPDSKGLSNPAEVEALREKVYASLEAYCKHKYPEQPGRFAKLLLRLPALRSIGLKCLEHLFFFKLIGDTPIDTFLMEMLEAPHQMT

## Cc1cc2c(cc1C(=O)/C(Cl)=C/c1ccc(C(=O)O)cc1)C(C)(C)CCC2(C)C
NB-4 [1]
  Activity: 15%
NB-4 [2]
  Activity: Dose-dependent-effect
[3]
  Activity: Active; Highly Raralpha Selective Agonistic Activity Observed
NB-4 [4]
  Activity: 27.43%
NB-4 [5]
  Activity: 21.24%
[6]
  Activity: 24.72%
[7]
  Activity: 17.39%
NB-4 [8]
  Activity: 43%
NB-4 [9]
  Activity: 12%
NB-4 [10]
  Activity: 41%
NB-4 [11]
  Activity: 4%
[12]
  Activity: 7%
[13]
  Activity: 8%
[14]
  Activity: 66%
[15]
  Activity: 19%
NB-4 [16]
  inhibition at 0.125 µM: ~10%
NB-4 [17]
  inhibition (INH): 100%

## COc1ccc(CC(=O)N/N=C/c2c(O)ccc3ccccc23)cc1
NB-4 [18]
  viability at 10 µM: 60.7%
NB-4 [19]
  Activity: 20.4%
NB-4 [20]
  Activity: 18.15%
NB-4 [21]
  Activity: 1.78%
[22]
  viability at 10 µM: 63.5%
[23]
  Activity: 17.31%
[24]
  Activity: 18.38%
[25]
  Activity: 0.77%
ATRA-resistant NB4-LR2 [26]
  Activity: inactive
ATRA-resistant NB4-LR2 [27]
  Activity: inactive
ATRA-resistant NB4-LR2 [28]
  Activity: inactive

## O=[N+]([O-])/C=C/c1cccc2ccccc12
NB-4 [29]
  viability at 5 µM: 78.6%
NB-4 [30]
  Activity: 9.62%
NB-4 [31]
  Activity: 11.26%
NB-4 [32]
  Activity: 0.48%
[33]
  viability at 5 µM: 42.3%
[34]
  Activity: 28.83%
[35]
  Activity: 28.61%
[36]
  Activity: 0.29%

## Cc1cc2c(cc1-c1cc(/C=C/C(=O)O)ccc1O)C(C)(C)CCC2(C)C
[37]
  Kd: 549 nM
